# Values quoted from earlier work, collected in patent US4461765A (Shionogi & Co., Ltd., priority 1979, dated 1984).
# Details: co-trimoxazol SMX:TMP 5:1; oral or intravenous administration
structure (smiles),measurement,value
"COc1cc(Cc2cnc(N)nc2N)cc(OC)c1OC [TMP, trimethoprim]",minimum inhibition concentration in the blood level,0.6 µg/mL
